ChEMBL document CHEMBL5518185, “Design, synthesis and antitumor activity of 4-arylamine substituted pyrimidine derivatives as noncovalent EGFR inhibitors overcoming C797S mutation” (Eur J Med Chem, 2024)
pIC50: −log10 of the molar value.

What was measured:
[1] = test system: HCC827; test: Antiproliferative activity against human HCC827 cells assessed as inhibition of cell growth measured after 72 hrs by MTT assay; type: functional, cell-based; settings: HCC827, 72 h
[2] = target: T1, Epidermal growth factor receptor (Homo sapiens, UniProt P00533); test: Inhibition of wild type EGFR (unknown origin) preincubated for 10 mins followed by substrate addition and measured after 50 mins in presence of ATP by HTRF assay
T1 sequence (P00533 whole entry): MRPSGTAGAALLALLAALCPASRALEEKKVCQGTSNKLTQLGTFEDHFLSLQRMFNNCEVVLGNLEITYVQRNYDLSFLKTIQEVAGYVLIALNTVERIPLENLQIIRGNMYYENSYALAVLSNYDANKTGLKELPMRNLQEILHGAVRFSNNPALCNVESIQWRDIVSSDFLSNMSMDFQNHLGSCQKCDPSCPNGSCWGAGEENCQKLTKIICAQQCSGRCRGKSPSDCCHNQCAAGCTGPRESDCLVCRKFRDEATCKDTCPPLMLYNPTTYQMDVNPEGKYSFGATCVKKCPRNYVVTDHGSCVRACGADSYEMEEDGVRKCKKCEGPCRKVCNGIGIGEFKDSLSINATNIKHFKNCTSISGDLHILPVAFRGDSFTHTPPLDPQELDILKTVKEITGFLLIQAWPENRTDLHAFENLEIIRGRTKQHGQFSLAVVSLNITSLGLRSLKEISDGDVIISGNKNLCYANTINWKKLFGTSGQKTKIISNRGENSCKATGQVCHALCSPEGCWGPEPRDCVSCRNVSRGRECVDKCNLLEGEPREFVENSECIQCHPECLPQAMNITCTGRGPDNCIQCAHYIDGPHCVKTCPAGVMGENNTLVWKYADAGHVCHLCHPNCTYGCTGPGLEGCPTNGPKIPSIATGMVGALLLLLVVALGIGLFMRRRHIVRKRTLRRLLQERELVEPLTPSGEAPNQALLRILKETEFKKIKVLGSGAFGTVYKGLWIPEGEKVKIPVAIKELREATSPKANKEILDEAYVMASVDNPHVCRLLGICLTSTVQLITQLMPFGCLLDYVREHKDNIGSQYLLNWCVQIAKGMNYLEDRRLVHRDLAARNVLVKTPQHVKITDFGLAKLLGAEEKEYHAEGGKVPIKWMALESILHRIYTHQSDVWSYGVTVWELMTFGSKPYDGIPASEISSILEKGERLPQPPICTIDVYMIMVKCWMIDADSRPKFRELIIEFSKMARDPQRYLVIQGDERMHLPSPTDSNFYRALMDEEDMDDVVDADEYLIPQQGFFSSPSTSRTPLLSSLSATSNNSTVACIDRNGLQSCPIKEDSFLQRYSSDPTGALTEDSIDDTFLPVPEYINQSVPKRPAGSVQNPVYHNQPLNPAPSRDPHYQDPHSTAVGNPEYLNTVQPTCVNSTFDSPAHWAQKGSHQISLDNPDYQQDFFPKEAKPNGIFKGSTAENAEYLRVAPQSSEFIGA

[3] = target: Epidermal growth factor receptor (Homo sapiens, UniProt P00533, EX19DEL/T790M); test: Inhibition of EGFR Del19/T790M (unknown origin) preincubated for 10 mins followed by substrate addition and measured after 50 mins in presence of ATP by HTRF assay
Epidermal growth factor receptor (Homo sapiens, UniProt P00533, EX19DEL/T790M), sequence (P00533 whole entry, looked up, stated change not applied): as the sequence (P00533 whole entry) above

[4] = target: T1, Epidermal growth factor receptor; test: Inhibition of wild type EGFR (unknown origin) at 100 nM preincubated for 10 mins followed by substrate addition and measured after 50 mins in presence of ATP by HTRF assay relative to control; settings: time 60.0 min
[5] = target: Tyrosine-protein kinase ABL1 (Homo sapiens) (UniProt P00519); test: Inhibition of Abl (unknown origin) by HTRF assay relative to control; settings: concentration not given here
[6] = species on record: Homo sapiens; test: Inhibition of Akt (unknown origin) by HTRF assay relative to control; settings: concentration not given here
[7] = target: Tyrosine-protein kinase BTK (Homo sapiens) (UniProt Q06187); test: Inhibition of BTK (unknown origin) by HTRF assay relative to control; settings: concentration not given here
Tyrosine-protein kinase BTK (Homo sapiens), sequence (Q06187 whole entry): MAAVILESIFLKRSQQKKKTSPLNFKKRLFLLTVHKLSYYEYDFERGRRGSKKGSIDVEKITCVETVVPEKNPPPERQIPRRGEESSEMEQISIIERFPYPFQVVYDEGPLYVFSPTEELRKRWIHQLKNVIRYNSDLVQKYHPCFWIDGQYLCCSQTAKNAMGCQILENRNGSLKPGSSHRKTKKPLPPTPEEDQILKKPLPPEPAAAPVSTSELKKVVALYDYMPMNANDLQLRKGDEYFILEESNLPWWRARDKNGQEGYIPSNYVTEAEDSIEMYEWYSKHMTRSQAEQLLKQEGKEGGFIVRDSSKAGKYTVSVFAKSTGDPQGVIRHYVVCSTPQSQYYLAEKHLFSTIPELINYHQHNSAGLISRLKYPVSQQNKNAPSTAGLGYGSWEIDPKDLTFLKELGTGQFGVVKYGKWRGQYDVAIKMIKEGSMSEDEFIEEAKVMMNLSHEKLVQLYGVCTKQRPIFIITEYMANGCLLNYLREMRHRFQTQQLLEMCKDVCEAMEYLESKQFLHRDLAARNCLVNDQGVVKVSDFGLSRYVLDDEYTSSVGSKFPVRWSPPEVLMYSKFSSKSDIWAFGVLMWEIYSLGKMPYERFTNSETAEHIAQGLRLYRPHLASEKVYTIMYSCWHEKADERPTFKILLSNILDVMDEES

[8] = target: Insulin-like growth factor 1 receptor (Homo sapiens) (UniProt P08069); test: Inhibition of IGF-1R (unknown origin) by HTRF assay relative to control; settings: concentration not given here
[9] = target: Dual specificity mitogen-activated protein kinase kinase; MEK1/2 (Homo sapiens) (UniProt P36507+Q02750); test: Inhibition of MEK1/2 (unknown origin) by HTRF assay relative to control; type: protein assay; settings: concentration not given here
Dual specificity mitogen-activated protein kinase kinase; MEK1/2 (Homo sapiens), sequence (P36507 whole entry, looked up): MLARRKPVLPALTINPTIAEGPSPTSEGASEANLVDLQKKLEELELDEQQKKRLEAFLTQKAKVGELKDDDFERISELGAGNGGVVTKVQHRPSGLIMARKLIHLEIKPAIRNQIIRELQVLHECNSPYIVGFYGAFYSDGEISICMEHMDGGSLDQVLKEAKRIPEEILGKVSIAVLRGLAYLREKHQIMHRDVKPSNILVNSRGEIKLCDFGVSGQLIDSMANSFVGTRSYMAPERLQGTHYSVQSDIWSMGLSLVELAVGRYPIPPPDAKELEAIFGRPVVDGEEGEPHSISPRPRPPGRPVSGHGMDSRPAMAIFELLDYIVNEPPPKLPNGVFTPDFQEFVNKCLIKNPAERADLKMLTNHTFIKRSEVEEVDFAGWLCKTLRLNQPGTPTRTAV
Dual specificity mitogen-activated protein kinase kinase; MEK1/2 (Homo sapiens), sequence (Q02750 whole entry, looked up): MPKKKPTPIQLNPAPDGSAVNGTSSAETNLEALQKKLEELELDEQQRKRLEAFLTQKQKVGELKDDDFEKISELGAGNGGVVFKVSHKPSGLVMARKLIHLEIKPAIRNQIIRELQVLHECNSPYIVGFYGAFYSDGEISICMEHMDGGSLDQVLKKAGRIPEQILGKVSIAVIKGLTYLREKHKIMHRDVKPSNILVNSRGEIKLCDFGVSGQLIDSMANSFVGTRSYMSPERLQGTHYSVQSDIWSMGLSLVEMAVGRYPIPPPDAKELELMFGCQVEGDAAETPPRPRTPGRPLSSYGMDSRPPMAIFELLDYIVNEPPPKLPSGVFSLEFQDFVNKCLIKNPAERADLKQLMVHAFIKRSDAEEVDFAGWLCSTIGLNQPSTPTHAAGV

[10] = target: Platelet-derived growth factor receptor alpha (Homo sapiens) (UniProt P16234); test: Inhibition of PDGFR alpha (unknown origin) by HTRF assay relative to control; settings: concentration not given here
[11] = Cytotoxicity against human L02 cells assessed as inhibition of cell viability measured after 72 hrs by MTT assay; type: toxicity, cell-based
[12] = test system: HCC827; test: Induction of cell cycle arrest in human HCC827 cells assessed as accumulation of cells at G0/G1 phase at 30 nM measured after 24 hrs by PI staining based flow cytometry analysis (reference value: 54.36%); type: functional
[13] = test system: HCC827; test: Induction of cell cycle arrest in human HCC827 cells assessed as accumulation of cells at S phase at 10 nM measured after 24 hrs by PI staining based flow cytometry analysis (reference value: 28.81%); type: functional
[14] = test system: HCC827; test: Induction of cell cycle arrest in human HCC827 cells assessed as accumulation of cells at S phase at 30 nM measured after 24 hrs by PI staining based flow cytometry analysis (reference value: 28.81%); type: functional
[15] = test system: HCC827; test: Induction of cell cycle arrest in human HCC827 cells assessed as accumulation of cells at S phase at 100 nM measured after 24 hrs by PI staining based flow cytometry analysis (reference value: 28.81%); type: functional
[16] = test system: HCC827; test: Induction of cell cycle arrest in human HCC827 cells assessed as accumulation of cells at G2/M phase at 30 nM measured after 24 hrs by PI staining based flow cytometry analysis (reference value: 16.83%); type: functional
[17] = test system: HCC827; test: Induction of cell cycle arrest in human HCC827 cells assessed as accumulation of cells at G2/M phase at 100 nM measured after 24 hrs by PI staining based flow cytometry analysis (reference value: 16.83%); type: functional
[18] = test system: HCC827; test: Induction of apoptosis in human HCC827 cells assessed as viable cells at 10 nM measured after 24 hrs by annexin V/PI staining based flu cytometry analysis (reference value: 84.0%); type: functional; settings: read-out: Activity
[19] = test system: HCC827; test: Induction of apoptosis in human HCC827 cells assessed as early apoptotic cells at 10 nM measured after 24 hrs by annexin V/PI staining based flu cytometry analysis (reference value: 3.2%); type: functional
[20] = test system: HCC827; test: Induction of apoptosis in human HCC827 cells assessed as necrotic cells at 100 nM measured after 24 hrs by annexin V/PI staining based flu cytometry analysis (reference value: 7.34%); type: functional
[21] = test system: HCC827; test: Induction of apoptosis in human HCC827 cells assessed as activation of caspase-3 level measured after 48 hrs by Western blot analysis; type: functional, cell-based; settings: dose 10-400 nM
[22] = test system: HCC827; test: Antitumor activity against human HCC827 cells xenografted in BALB/c nude mouse assessed as tumor growth inhibition at 10 mg/kg/day, po measured every three days for 21 days by vernier caliper based analysis relative to control; type: functional; settings: HCC827, 504 h, time 21 day, read-out: TGI
[23] = test system: HCC827; test: Antitumor activity against human HCC827 cells xenografted in BALB/c nude mouse assessed as tumor growth inhibition at 50 mg/kg/day, po measured every three days for 21 days by vernier caliper based analysis relative to control; type: functional; settings: HCC827, 504 h, time 21 day, read-out: TGI
[24] = Toxicity in BALB/c nude mouse assessed as animal death at 10 to 50 mg/kg/day, po measured every three days for 21 days; type: organism-based; settings: in vivo, 504 h, dose 10-50 mg/kg/day, time 21 day
[25] = Toxicity in BALB/c nude mouse assessed as drug tolerability at 10 to 50 mg/kg/day, po measured every three days for 21 days; type: organism-based; settings: in vivo, 504 h, dose 10-50 mg/kg/day, time 21 day
[26] = test system: Epidermal growth factor receptor (Homo sapiens), P00533 [UNDEFINED MUTATION]; settings: dose 100.0 nM
Epidermal growth factor receptor (Homo sapiens), P00533 [UNDEFINED MUTATION], sequence (P00533 whole entry, looked up, change not shown): as the sequence (P00533 whole entry) above

[27] = test system: Epidermal growth factor receptor (Homo sapiens), P00533 [UNDEFINED MUTATION]; settings: dose 30.0 nM
[28] = Inhibition of ERK (unknown origin) by HTRF assay relative to control; settings: Homo sapiens; concentration not given here

O=C(NO)c1sccc1Nc1nc(Nc2ccc(N3CCOCC3)cc2)ncc1Cl
pIC50 [1]: 7.60
pIC50 [2]: 7.79
pIC50 [3]: 6.67
inhibition [4]: 99.5%
inhibition [5]: < 70%
inhibition [6]: < 70%
inhibition [7]: < 70%
inhibition [8]: < 70%
inhibition [9]: < 70%
inhibition [10]: < 70%
IC50 at 72 h [11]: 2450 nM
Activity [12]: 68.63%
Activity [13]: 16.41%
Activity [14]: 12.31%
Activity [15]: 9.64%
Activity [16]: 19.06%
Activity [17]: 46.13%
viability at 0.01 µM [18]: 77.6%
Activity [19]: 9.96%
Activity [20]: 6.32%
Activity [21]: Dose-Dependent Effect
inhibition in vivo at 10 mg/kg/day [22]: 50.6%
inhibition in vivo at 50 mg/kg/day [23]: 89.5%
Activity [24]: Non-Toxic
Activity [25]: Non-Toxic
inhibition [26]: 88.6%
inhibition [27]: 61.9%
inhibition [28]: < 70%
